Data published in the supplement of paper PMC11451515.

How the values were obtained:
Conditions in all cases: 48 h
[1] = test system: P12-Ichikawa; test: AUC of viability dose-response curve (% viability x log10 dose units); higher = less sensitive
Summary of the method: (§1)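 Leukemia cells adapted to each medium were seeded in 1536-well plates (500 or 1000 cells/well). They were dosed with library compounds in DMSO at 11 threefold doses, 47 μM to 0.79 nM, for 48 h at 37°C. CellTiter-Glo One luminescence was normalised per plate to DMSO and cell-free wells. Area under the curve was integrated by trapezoidal rule over log10 doses on a four-parameter log-logistic fit; curves exceeding full viability were scaled and curves failing quality control removed.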

[2] = test system: SEM cells; test: as above
Summary of the method: as §1

[3] = test system: NOMO1; test: as above
Summary of the method: as §1

[4] = test system: SEM cells; test: cell viability relative to DMSO control; higher = less cytotoxic
Summary of the method: (§2)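 Leukemia cells (NOMO1 or SEM, 500 cells/well; P12-Ichikawa, 1000 cells/well) were seeded in 5 μl in 1536-well plates after at least four passages of adaptation to each medium. They received library compounds in DMSO by pin dosing, 11 threefold points from 47 μM to 0.79 nM. Luminescence with CellTiter-Glo One was read after 48 h at 37°C. Viability is stated per plate relative to DMSO wells, with cell-free wells as background.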

[5] = test system: P12-Ichikawa; test: as above
Summary of the method: as §2

[6] = test system: NOMO1; test: as above
Summary of the method: as §2

CC(=O)NC(C)c1ccc(Oc2ccc(OC(C)C)cc2)cc1 (stereo unspecified)
AUC of viability dose-response curve
Conditions | HPLM + 10% dialyzed FBS | RPMI 5 mM glucose + 10% FBS | RPMI 5 mM glucose + 10% dialyzed FBS
[1] | 454 | 440 | 450
[2] | 469 | 438 | 449

CC(CCc1ccc(O)cc1)NCCc1ccc(O)c(O)c1 (stereo unspecified)
AUC of viability dose-response curve
Conditions | [1] | [2] | [3]
HPLM + 10% dialyzed FBS | 441 | 436 | 463
RPMI 5 mM glucose + 10% FBS | 450 | 415 | 461
RPMI 5 mM glucose + 10% dialyzed FBS | 453 | 439 | 452

[4], HPLM + 10% dialyzed FBS
Conditions | cell viability [%]
0.000781 µM | 117
0.00234 µM | 113
0.00702 µM | 138
0.0211 µM | 145
0.0632 µM | 133
0.19 µM | 141
0.569 µM | 132
1.71 µM | 128
5.12 µM | 114
15.4 µM | 90.5
46.1 µM | 19.8

O=C1CCC(N2C(=O)c3ccccc3C2=O)C(=O)N1 (stereo unspecified)
AUC of viability dose-response curve
Conditions | [1] | [2] | [3]
HPLM + 10% dialyzed FBS | 443 | 454 | 436
RPMI 5 mM glucose + 10% FBS | 438 | 437 | 437
RPMI 5 mM glucose + 10% dialyzed FBS | 450 | 443 | 461

[4], RPMI 5 mM glucose + 10% FBS
Conditions | cell viability [%]
0.000781 µM | 106
0.00234 µM | 114
0.00702 µM | 115
0.0211 µM | 112
0.0632 µM | 102
0.19 µM | 94.6
0.569 µM | 98.2
1.71 µM | 111
5.12 µM | 101
15.4 µM | 67.3
46.1 µM | 98.9

N[S+](=O)([O-])c1cc2c(cc1Cl)NCN[S+]2(=O)[O-]
AUC of viability dose-response curve
Conditions | [1] | [2] | [3]
HPLM + 10% dialyzed FBS | 466 | 450 | 468
RPMI 5 mM glucose + 10% FBS | 468 | 442 | 477
RPMI 5 mM glucose + 10% dialyzed FBS | 474 | 412 | 470

cell viability [%]
Conditions | [4] | [5] | [6]
HPLM + 10% dialyzed FBS, 0.000781 µM | 92.5 | 94.4 | 111
HPLM + 10% dialyzed FBS, 0.00234 µM | 102 | 103 | 97.3
HPLM + 10% dialyzed FBS, 0.00702 µM | 101 | 104 | 105
HPLM + 10% dialyzed FBS, 0.0211 µM | 94.6 | 110 | 109
HPLM + 10% dialyzed FBS, 0.0632 µM | 104 | 112 | 122
HPLM + 10% dialyzed FBS, 0.19 µM | 111 | 116 | 111
HPLM + 10% dialyzed FBS, 0.569 µM | 114 | 116 | 122
HPLM + 10% dialyzed FBS, 1.71 µM | 109 | 113 | 121
HPLM + 10% dialyzed FBS, 5.12 µM | 114 | 111 | 103
HPLM + 10% dialyzed FBS, 15.4 µM | 121 | 110 | 105
HPLM + 10% dialyzed FBS, 46.1 µM | 107 | 104 | 102
RPMI 5 mM glucose + 10% FBS, 0.000781 µM | 96.2 | 111 | 108
RPMI 5 mM glucose + 10% FBS, 0.00234 µM | 115 | 115 | 109
RPMI 5 mM glucose + 10% FBS, 0.00702 µM | 109 | 110 | 114
RPMI 5 mM glucose + 10% FBS, 0.0211 µM | 104 | 125 | 109
RPMI 5 mM glucose + 10% FBS, 0.0632 µM | 110 | 118 | 101
RPMI 5 mM glucose + 10% FBS, 0.19 µM | 107 | 126 | 113
RPMI 5 mM glucose + 10% FBS, 0.569 µM | 114 | 126 | 119
RPMI 5 mM glucose + 10% FBS, 1.71 µM | 119 | 121 | 117
RPMI 5 mM glucose + 10% FBS, 5.12 µM | 124 | 108 | 117
RPMI 5 mM glucose + 10% FBS, 15.4 µM | 116 | 118 | 112
RPMI 5 mM glucose + 10% FBS, 46.1 µM | 120 | 120 | 98.8
RPMI 5 mM glucose + 10% dialyzed FBS, 0.000781 µM | 88.4 | 110 | 109
RPMI 5 mM glucose + 10% dialyzed FBS, 0.00234 µM | 100 | 106 | 101
RPMI 5 mM glucose + 10% dialyzed FBS, 0.00702 µM | 112 | 108 | 112
RPMI 5 mM glucose + 10% dialyzed FBS, 0.0211 µM | 124 | 105 | 106
RPMI 5 mM glucose + 10% dialyzed FBS, 0.0632 µM | 107 | 116 | 122
RPMI 5 mM glucose + 10% dialyzed FBS, 0.19 µM | 124 | 105 | 136
RPMI 5 mM glucose + 10% dialyzed FBS, 0.569 µM | 107 | 111 | 117
RPMI 5 mM glucose + 10% dialyzed FBS, 1.71 µM | 134 | 116 | 124
RPMI 5 mM glucose + 10% dialyzed FBS, 5.12 µM | 117 | 118 | 111
RPMI 5 mM glucose + 10% dialyzed FBS, 15.4 µM | 115 | 107 | 112
RPMI 5 mM glucose + 10% dialyzed FBS, 46.1 µM | 151 | 104 | 101

CC(C)C[C@@H](C(=O)N[C@H](C(=O)OC1CCCC1)c1ccccc1)[C@H](O)C(=O)NO
AUC of viability dose-response curve
Conditions | [1] | [2] | [3]
HPLM + 10% dialyzed FBS | 446 | 454 | 451
RPMI 5 mM glucose + 10% FBS | 424 | 423 | 449
RPMI 5 mM glucose + 10% dialyzed FBS | 441 | 399 | 446

cell viability [%]
Conditions | [4] | [5] | [6]
HPLM + 10% dialyzed FBS, 0.000781 µM | 125 | 109 | 107
HPLM + 10% dialyzed FBS, 0.00234 µM | 119 | 111 | 114
HPLM + 10% dialyzed FBS, 0.00702 µM | 123 | 112 | 112
HPLM + 10% dialyzed FBS, 0.0211 µM | 136 | 114 | 119
HPLM + 10% dialyzed FBS, 0.0632 µM | 120 | 108 | 126
HPLM + 10% dialyzed FBS, 0.19 µM | 122 | 108 | 107
HPLM + 10% dialyzed FBS, 0.569 µM | 117 | 104 | 104
HPLM + 10% dialyzed FBS, 1.71 µM | 89.2 | 105 | 122
HPLM + 10% dialyzed FBS, 5.12 µM | 105 | 95.5 | 103
HPLM + 10% dialyzed FBS, 15.4 µM | 104 | 86.8 | 96.2
HPLM + 10% dialyzed FBS, 46.1 µM | 38 | 59.7 | 33.6
RPMI 5 mM glucose + 10% FBS, 0.000781 µM | – | 103 | 111
RPMI 5 mM glucose + 10% FBS, 0.00234 µM | – | 119 | 102
RPMI 5 mM glucose + 10% FBS, 0.00702 µM | – | 114 | 117
RPMI 5 mM glucose + 10% FBS, 0.0211 µM | – | 113 | 117
RPMI 5 mM glucose + 10% FBS, 0.0632 µM | – | 107 | 103
RPMI 5 mM glucose + 10% FBS, 0.19 µM | – | 116 | 107
RPMI 5 mM glucose + 10% FBS, 0.569 µM | – | 110 | 103
RPMI 5 mM glucose + 10% FBS, 1.71 µM | – | 93.8 | 99.3
RPMI 5 mM glucose + 10% FBS, 5.12 µM | – | 89.6 | 99
RPMI 5 mM glucose + 10% FBS, 15.4 µM | – | 69.8 | 92.6
RPMI 5 mM glucose + 10% FBS, 46.1 µM | – | 37.1 | 13
RPMI 5 mM glucose + 10% dialyzed FBS, 0.000781 µM | 113 | 112 | 114
RPMI 5 mM glucose + 10% dialyzed FBS, 0.00234 µM | 113 | 113 | 114
RPMI 5 mM glucose + 10% dialyzed FBS, 0.00702 µM | 111 | 115 | 122
RPMI 5 mM glucose + 10% dialyzed FBS, 0.0211 µM | 114 | 116 | 122
RPMI 5 mM glucose + 10% dialyzed FBS, 0.0632 µM | 102 | 111 | 100
RPMI 5 mM glucose + 10% dialyzed FBS, 0.19 µM | 106 | 103 | 119
RPMI 5 mM glucose + 10% dialyzed FBS, 0.569 µM | 101 | 110 | 102
RPMI 5 mM glucose + 10% dialyzed FBS, 1.71 µM | 72.8 | 102 | 118
RPMI 5 mM glucose + 10% dialyzed FBS, 5.12 µM | 83.4 | 89 | 106
RPMI 5 mM glucose + 10% dialyzed FBS, 15.4 µM | 65.9 | 89.6 | 91.2
RPMI 5 mM glucose + 10% dialyzed FBS, 46.1 µM | 23.2 | 35.9 | 16
